Source: ChEMBL document CHEMBL3608235, “Pyrroloaryls and pyrroloheteroaryls: Inhibitors of the HIV fusion/attachment, reverse transcriptase and integrase” (Bioorg Med Chem, 2015)

Tests used:
[1] = Selectivity index, ratio of CC50 for mock-infected human MT4 cells to EC50 for HIV1 infected in human MT4 cells; type: toxicity, cell-based; settings: MT4 cells (mock-infected and HIV1-infected), read-out: Ratio CC50/EC50
[2] = Cytotoxicity against mock-infected human MT4 cells assessed as reduction in cell viability; type: cell-based
[3] = biological target: Human immunodeficiency virus type 1 reverse transcriptase (Human immunodeficiency virus 1, UniProt Q72547); experiment: Inhibition of HIV1 reverse transcriptase
[4] = test system: Human immunodeficiency virus 1; experiment: Antiviral activity against HIV1 infected in human MT4 cells assessed as reduction in virus-induced cytopathogenicity; type: functional, organism-based; settings: Human immunodeficiency virus 1, MT4
[5] = test system: Human immunodeficiency virus 2; experiment: Antiviral activity against HIV2 ROD; type: functional, organism-based; settings: Human immunodeficiency virus 2, ISOLATE ROD
[6] = test system: Human immunodeficiency virus; experiment: Antiviral activity against HIV by XTT assay; type: functional, organism-based; settings: Human immunodeficiency virus 1

Row | Structure (SMILES) | EC50 [4] | EC50 [5] | selectivity ratio [1] | CC50 [2] | further results
1 | CC(C)=CCn1cc2c(c1)S(=O)(=O)c1cc(Cl)ccc1NC2=O |  |  | 226 | 68 µM | 
2 | C=CCN1C(=O)c2cccn2S(=O)(=O)c2cc(Cl)ccc21 | 3700 nM |  | > 81 | > 300 µM | IC50 [3]: 2900 nM
3 | O=C1N(Cc2cccc(Cl)c2)c2cccn2S(=O)(=O)N1Cc1cccc(Br)c1 |  | > 150 µM |  |  | 
4 | O=C1N(Cc2ccccc2)c2cccn2S(=O)(=O)N1Cc1cccc(F)c1 |  | > 150 µM |  |  | 
5 | CC(C)c1c(CO)cn(Cc2ccncc2)c1Sc1cc(Cl)cc(Cl)c1 | 30 nM |  | > 6670 | > 200 µM | 
6 | CCCCC(=O)NC1=NN(C)c2ncnc3c2c1cn3[C@@H]1O[C@H](CO)[C@@H](O)[C@H]1O |  |  |  |  | IC50 [6]: 800 nM
7 | CN1C(=O)c2cccn2S(=O)(=O)c2ccccc21 | 3500 nM |  |  | > 100 µM | IC50 [3]: 4000 nM
8 | O=C1Nc2ccc(Cl)cc2S(=O)(=O)c2cn(CC3CC3)cc21 | 2200 nM |  |  |  | 
9 | CCCCCC(=O)NC1=NN(C)c2ncnc3c2c1cn3[C@@H]1O[C@H](CO)[C@@H](O)[C@H]1O |  |  |  |  | IC50 [6]: 350 nM
10 | CCCCCCC(=O)NC1=NN(C)c2ncnc3c2c1cn3[C@@H]1O[C@H](CO)[C@@H](O)[C@H]1O |  |  |  |  | IC50 [6]: 35 nM
11 | CCCCCCCCCCCC(=O)NC1=NN(C)c2ncnc3c2c1cn3[C@@H]1O[C@H](CO)[C@@H](O)[C@H]1O |  |  |  |  | IC50 [6]: > 100000 nM
12 | O=C1N(Cc2ccccc2Br)c2cccn2S(=O)(=O)N1Cc1cccc(F)c1 |  | > 150 µM |  |  | 
13 | C/C=C/CN1C(=O)c2cccn2S(=O)(=O)c2cc(Cl)ccc21 | 4100 nM |  | > 73 | > 300 µM | IC50 [3]: 3100 nM
14 | Cc1cccc(Sc2c(C(C)C)c(COC(N)=O)cn2Cc2ccncc2)c1 | 120 nM |  | 1670 | > 200 µM | 
15 | CSCn1cc2c(c1)S(=O)(=O)c1cc(Cl)ccc1NC2=O | 2200 nM |  |  |  | 
16 | CC(C)N1C(=O)c2cccn2S(=O)(=O)c2ccccc21 | 3500 nM |  |  | > 100 µM | IC50 [3]: 4000 nM
17 | CC(C)=CCN1C(=O)N(Cc2ccccc2)S(=O)(=O)n2cccc21 |  | > 150 µM |  |  | 
18 | O=C1N(Cc2cccc(Cl)c2)c2cccn2S(=O)(=O)N1Cc1ccccc1 |  | > 150 µM |  |  | 
19 | O=C1N(Cc2ccccc2Br)c2cccn2S(=O)(=O)N1Cc1cccc(Br)c1 |  | > 150 µM |  |  | 
20 | Cc1cc(C)cc(Sc2c(C(C)C)c(COC(N)=O)cn2Cc2ccncc2)c1 | 150 nM |  | 1330 | > 200 µM | 

Row | Structure (SMILES) | EC50 [4] | EC50 [5] | selectivity ratio [1] | CC50 [2] | further results
21 | O=C1N(Cc2ccccc2)c2cccn2S(=O)(=O)N1Cc1ccccc1 |  | > 150 µM |  |  | 
22 | CC(C)c1c(COC(N)=O)cn(Cc2ccncc2)c1Sc1cc(F)cc(F)c1 | 100 nM |  | 2000 | > 200 µM | 
23 | CC(C)=CCn1cc2c(c1)S(=O)(=O)c1cc(Cl)ccc1NC2=S | 700 nM |  |  |  | 
24 | CCN1C(=O)c2cccn2S(=O)(=O)c2ccc(Cl)cc21 | 3500 nM |  |  | > 100 µM | IC50 [3]: 4000 nM
25 | N#Cc1ccccc1CN1C(=O)N(Cc2cccc(Cl)c2)S(=O)(=O)n2cccc21 |  | > 150 µM |  |  | 
26 | CC(C)c1c(COC(N)=O)cn(Cc2ccc(N)cc2)c1Sc1cc(Cl)cc(Cl)c1 | 100 nM |  | 2000 | > 200 µM | 
27 | N#Cc1cccc(CN2C(=O)N(Cc3cccc(Cl)c3)S(=O)(=O)n3cccc32)c1 |  | > 150 µM |  |  | 
28 | CCN1C(=O)c2cccn2S(=O)(=O)c2ccccc21 | 3500 nM |  |  | > 100 µM | IC50 [3]: 4000 nM
29 | CN1C(=S)c2cn(C)cc2S(=O)(=O)c2cc(Cl)ccc21 | 1600 nM |  |  |  | 
30 | O=C1N(Cc2ccccc2Br)c2cccn2S(=O)(=O)N1Cc1ccccc1 |  | > 150 µM |  |  | 
31 | N#CCN1C(=O)N(Cc2cccc(Cl)c2)S(=O)(=O)n2cccc21 |  | > 150 µM |  |  | 
32 | CCN1C(=O)c2cccn2S(=O)(=O)c2cc(Cl)ccc21 | 2400 nM |  | 118 | > 300 µM | IC50 [3]: 2700 nM
33 | O=C1N(Cc2ccccc2)c2cccn2S(=O)(=O)N1Cc1cccc(Cl)c1 |  | > 150 µM |  |  | 
34 | N#CCN1C(=O)N(Cc2ccccc2)S(=O)(=O)n2cccc21 |  | > 150 µM |  |  | 
35 | CC(C)=CCN1C(=O)N(Cc2cccc(Cl)c2)S(=O)(=O)n2cccc21 |  | > 150 µM |  |  | 
36 | O=C(NNc1nc2ccccc2n2cccc12)c1cnccn1 |  |  |  |  | IC50 [3]: 19000 nM
37 | CC1(c2ccccc2)Sc2ccccc2-n2cccc2C1=O (stereo not drawn) | 6900 nM |  | 9 | 10 µM | IC50 [3]: 350 nM
38 | CC(C)=CCN1C(=O)N(Cc2cccc(Br)c2)S(=O)(=O)n2cccc21 |  | > 150 µM |  |  | 
39 | O=C1N(Cc2cccc(Cl)c2)c2cccn2S(=O)(=O)N1Cc1cccc(Cl)c1 |  | > 150 µM |  |  | 

Second part, led by results:

Row | EC50 [4] | EC50 [5] | Structure (SMILES) | selectivity ratio [1] | CC50 [2] | further results
40 |  | > 150 µM | N#Cc1cccc(CN2C(=O)N(Cc3cccc(Br)c3)S(=O)(=O)n3cccc32)c1 |  |  | 
41 | 3500 nM |  | C=CCN1C(=O)c2cccn2S(=O)(=O)c2ccccc21 |  | > 100 µM | IC50 [3]: 4000 nM
42 |  | > 150 µM | N#CCN1C(=O)N(Cc2cccc(F)c2)S(=O)(=O)n2cccc21 |  |  | 
43 |  | > 150 µM | N#Cc1ccccc1CN1C(=O)N(Cc2cccc(Br)c2)S(=O)(=O)n2cccc21 |  |  | 
44 |  | > 150 µM | CC(C)=CCN1C(=O)N(Cc2cccc(F)c2)S(=O)(=O)n2cccc21 |  |  | 
45 |  | > 150 µM | N#Cc1cccc(CN2C(=O)N(Cc3cccc(F)c3)S(=O)(=O)n3cccc32)c1 |  |  | 
46 | 120 nM |  | CC(C)c1c(COC(N)=O)cn(Cc2ccncc2)c1Sc1cc(Cl)cc(Cl)c1 | > 1670 | > 200 µM | 
47 | 37300 nM |  | CCC1(c2ccc3ccccc3c2)Sc2ccccc2-n2cccc2C1=O (stereo not drawn) | 9 | 0.5 µM | IC50 [3]: 850 nM
48 | 3500 nM |  | O=C1Nc2ccccc2S(=O)(=O)n2cccc21 |  | > 100 µM | IC50 [3]: 4000 nM
49 |  | > 150 µM | N#CCN1C(=O)N(Cc2cccc(Br)c2)S(=O)(=O)n2cccc21 |  |  | 
50 | 8 nM |  | Cc1cccc(Sc2c(C(C)C)c(CO)cn2Cc2ccncc2)c1 | 3250 | 50 µM | 
51 |  | > 150 µM | O=C1N(Cc2ccccc2Cl)c2cccn2S(=O)(=O)N1Cc1ccccc1 |  |  | 
52 | 45200 nM |  | CCC1(CC=C(C)C)Sc2ccccc2-n2cccc2C1=O (stereo not drawn) | 9 | 0.3 µM | IC50 [3]: 1350 nM
53 | 500 nM |  | CN1C(=O)c2cccn2S(=O)(=O)c2cc(Cl)ccc21 | > 600 | > 300 µM | IC50 [3]: 500 nM
54 | 4900 nM |  | CCC1(c2ccccc2)Sc2ccccc2-n2cccc2C1=O (stereo not drawn) | 9 | 0.25 µM | IC50 [3]: 470 nM
55 | 50 nM |  | CC(C)c1c(CO)cn(Cc2ccncc2)c1Sc1cccc(F)c1 | 1420 | 71 µM | 
56 |  | > 150 µM | O=C1N(Cc2ccccc2Br)c2cccn2S(=O)(=O)N1Cc1cccc(Cl)c1 |  |  | 
57 | 8100 nM |  | O=S1(=O)c2cc(Cl)ccc2NC(=S)c2c[nH]cc21 |  |  | 
58 |  | > 150 µM | O=C1N(Cc2ccccc2)c2cccn2S(=O)(=O)N1Cc1cccc(Br)c1 |  |  | 
59 | 6400 nM |  | C=CCC1(c2ccccc2)Sc2ccccc2-n2cccc2C1=O (stereo not drawn) | 9 | 25 µM | IC50 [3]: 710 nM
60 | 200 nM |  | CC(C)c1c(COC(N)=O)cn(Cc2ccncc2)c1Sc1cccc(F)c1 | 1000 | > 200 µM | 
61 | 1000 nM |  | O=C1Nc2ccc(Cl)cc2S(=O)(=O)n2cccc21 | > 300 | > 300 µM | IC50 [3]: 700 nM
62 | 7600 nM |  | Cn1cc2c(c1)S(=O)(=O)c1cc(Cl)ccc1NC2=S |  |  | 
